Laboratory results reported in patent US12415799B2, “Indazole-fused cyclic compound” (Zhejiang Yangli Pharmaceutical Technology Co., Ltd., priority 2020, dated 2025).

Assay: In vivo pharmacokinetics study in dogs
Parameters: species or system beagle dogs
Excerpt: Experimental purposes: To test the drug concentration in plasma of beagle dogs at different times after intravenous and intragastric administration of the test compound by LC/MS/MS using beagle dogs as the experimental animals. To study the pharmacokinetics of the test compound in beagle dogs in vivo and evaluate their pharmacokinetic characteristics.
Two healthy male and two female beagle dogs were divided into two groups according to the principle of similar body weight, with one male and one female in IV group and one male and one female in PO group. Animals were purchased from Beijing Marshall Biotechnology Co., Ltd.
IV group: Appropriate number of samples were weighed and prepared into 1 mg/mL solution respectively, and the mixture was stirred and ultrasonicated to reach a clear state, and the solvent was 10% HP-β-CD, and the pH value was adjusted to 5.74.
PO group: Appropriate amount of the solution prepared in IV group was diluted to 0.2 mg/mL with 10% HP-β-CD, and the pH value was adjusted to 5.8.
Administration: After fasting overnight, IV group was administered intravenously, and the dosage of the test compound was 1 mg/kg; PO group was administered intragastrically, and the dosage of the test compound was 2 mg/kg.
After the beagle dogs in the intravenous injection group were given the test compound respectively, and 200 μL of blood was collected from the peripheral vein at 0.0833, 0.25, 0.5, 1, 2, 4, 6, 8, 12 and 24 hours, and placed in a commercialized anticoagulant tube added with EDTA-K2 in advance. After intragastric administration of the test compound, 200 μL of blood was collected from the peripheral vein at 0.25, 0.5, 1, 2, 4, 6, 8, 12 and 24 hours, respectively, and placed in a commercialized anticoagulant tube added with EDTA-K2 in advance. After centrifugation (3,200 g, 4° C., 10 minutes), the plasma was collected, transferred to a pre-cooled centrifuge tube, quickly frozen in dry ice, and stored in a refrigerator at −60° C. or lower, until LC-MS/MS analysis. Animals were allowed to eat 4 hours after administration. LC/MS/MS method was used to determine the content of the test compound in the plasma of beagle dogs after intravenous and intragastric administration. The linear range of the method was 2.00 to 2000 nM.

`FCCCN1CC[C@H](Nc2cnc(C3=C(CC(F)(F)F)CCCc4c3ccc3[nH]nc(F)c43)cn2)C1` [Compound 11A] gave an AUC0-last (i.v. 1 mg/kg) of 5.078 µM·h, a Cl (i.v. 1 mg/kg) of 3.44 mL/min/kg and a T1/2 (i.v. 1 mg/kg) of 23.1 h. It also gave a Vdss (i.v. 1 mg/kg) of 6.60 L/kg, an AUC0-last (p.o. 2 mg/kg) of 7.963 µM·h and a Cmax (p.o. 2 mg/kg) of 495 nM. It also gave a T1/2 (p.o. 2 mg/kg) of 19.2 h and a F % (p.o. 2 mg/kg vs i.v. 1 mg/kg) of 78.2%.
